# Source: paper PMC11590367, “Characterization of novel small molecule inhibitors of estrogen receptor-activation function 2 (ER-AF2)” (Breast Cancer Research : BCR, 2024)
# Assays:
# [1] = target: T1, full length ERɑ protein, estrogen binding site (EBS) (Homo sapiens, UniProt P03372); test: E2-displacement assay (PolarScreen fluorescence polarization); details: fluorescence polarization, 1, 10 and 50 µM
# T1 construct: full length ERɑ protein was incubated with Fluormone ES2 Green; purchased ThermoFisher A15882
# T1 sequence (P03372 whole entry): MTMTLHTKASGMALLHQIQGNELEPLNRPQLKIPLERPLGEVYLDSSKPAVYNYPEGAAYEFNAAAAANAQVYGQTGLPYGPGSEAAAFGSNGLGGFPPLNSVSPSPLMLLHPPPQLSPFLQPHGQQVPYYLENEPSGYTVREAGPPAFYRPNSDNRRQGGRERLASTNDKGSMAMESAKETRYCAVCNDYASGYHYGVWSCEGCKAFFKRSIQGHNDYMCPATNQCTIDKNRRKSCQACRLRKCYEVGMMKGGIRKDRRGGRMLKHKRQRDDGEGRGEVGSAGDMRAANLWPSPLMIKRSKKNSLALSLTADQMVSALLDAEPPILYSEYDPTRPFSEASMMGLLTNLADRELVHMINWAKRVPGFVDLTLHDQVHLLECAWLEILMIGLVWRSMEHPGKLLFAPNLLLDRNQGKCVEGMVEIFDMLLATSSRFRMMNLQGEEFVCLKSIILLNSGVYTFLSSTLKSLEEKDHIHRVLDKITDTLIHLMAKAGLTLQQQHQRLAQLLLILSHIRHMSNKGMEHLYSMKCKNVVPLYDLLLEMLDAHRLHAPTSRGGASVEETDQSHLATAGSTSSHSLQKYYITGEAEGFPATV
# Description: The E2 displacement assay was performed using the PolarScreen Estrogen Receptor Alpha Competitor Assay, Green (ThermoFisher A15882) according to the manufacturer’s protocol. In brief, full length ERɑ protein was incubated with Fluormone ES2 Green (Fluormone Tracer) in the ES2 screening buffer in a black bottom 384-well plate (Corning 3573) in the presence of either 1, 10, or 50 µM of test compounds. The final concentrations in the assay were 2% DMSO (consistent with the MST assay), 4.5 nM fluormone, and 40 nM ERɑ protein. 20 µl of the mixture were added to each well, with triplicates performed for each condition. The plate was incubated in the dark at room temperature for 4 h before fluorescence polarization was measured using a Synergy Neo2 plate reader (BioTek).
# MCF7 spheroids = test: Viability assay in 3D spheroids, MCF7; assay type: cell-based; details: Homo sapiens, 1:2 dilution from 50 µM, 1 nM E2, read-out: IC50 on growth (area) of MCF7 spheroids
# Description: MCF7 and T47D cells were seeded into a Corning Costar ultra-low attachment, round-bottom, 96-well plate (Millipore Sigma, CLS7007-24EA) at a density of 2,500 cells/well in starvation media. After 4 days of starvation, the cells were treated with a 1:2 serial dilution of inhibitor from 50 µM to 0.2 µM in the presence of 1 nM estradiol. Images were taken every 6 h using the IncuCyte S3 system and spheroid sizes were determined with the IncuCyte analysis software.
# [2] = target: T2, ER (ERE-luc) in PC3 cells (Homo sapiens, UniProt P03372); test: Nuclear receptor luciferase transcriptional assay, ER; assay type: cell-based; details: 1 or 5 µM, 1 nM E2, PC3 cells
# T2 construct: expressed in transfected cells; host or cells: PC3 cells
# T2 sequence (P03372 whole entry): as above
# Description: (§1) PC3 cells (androgen receptor (AR)-, glucocorticoid receptor (GR)[…], progesterone receptor (PR)-, ER-) were starved for 72 h then seeded into a 96-well plate at a density of 5,000 cells/well. 24 h later, cells were transfected with either ER, AR, GR, or PR and a luciferase plasmid (ERE-luc for ER and ARR3tk-luc for AR, GR, and PR). 24 h post-transfection, cells were simultaneously stimulated with 1 nM E2 for ER, 0.1 nM R1881 for AR, 1 nM Dexamethasone for GR, or 1 nM Levonorgestrel for PR, and treated with 1 or 5 µM of VPC-260724 24 h post-treatment, cells were lysed with 50 µl of passive lysis buffer (Promega #E1910). 20 µl of lysate was transferred to a white flat-bottom 96-well plate (Corning Life Sciences Cat#3912). Luminescence readings were obtained using the TECAN M200 Pro plate reader following the addition of 50 µl of luciferase reagent (Promega Luciferase Assay System E1500).
# [3] = target: ER-Y537S - SRC3 interaction (Homo sapiens, UniProt P03372, Y537S); test: Proximity ligation assay, ER-Y537S mutant; assay type: cell-based; details: PLA, 10 µM
# Sequence of ER-Y537S - SRC3 interaction (P03372 whole entry Y537S): as the sequence (P03372 whole entry) above, with Y537S counted along it
# Description: MCF7 or TamR3 cells were starved for 72 h and then seeded onto PEI coated coverslips in a 6-well plate at 1 × 10^5 cells/well. For the E2 experiments, the cells were treated the following day with 10 µM of ER-AF2 inhibitor for 24 h, with E2 added 1 h before fixation. […] 24 h post-treatment, cells were fixed in methanol:acetone (3:1). Coverslips were then permeabilized with 0.05% Triton X-100 for 5 minutes at room temperature. The Duolink In Situ Detection Reagents Red kit from Millipore Sigma (DUO92008) was used for blocking and PLA according to the manufacturer’s protocol. Primary antibodies, Estrogen Receptor alpha antibody (F-10) (sc-8002) and Rabbit anti-SRC3 antibody (A300-348 A), were diluted 1:50 in antibody diluent.
# ER D538G/F404L mutant = ER D538G/F404L mutant (Homo sapiens, UniProt P03372, D538G/F404L); test: Transcriptional activity of fulvestrant resistant mutant ER; assay type: cell-based; details: compared to DMSO
# Sequence of ER D538G/F404L mutant (P03372 whole entry F404L/D538G): as the sequence (P03372 whole entry) above, with F404L, D538G counted along it
# [4] = target: T3, AR (ARR3tk-luc) in PC3 cells (Homo sapiens, UniProt P10275); test: Nuclear receptor luciferase transcriptional assay, AR; assay type: cell-based; details: 1 or 5 µM, 0.1 nM R1881, PC3 cells
# T3 construct: expressed in transfected cells; host or cells: PC3 cells
# T3 sequence (P10275 whole entry): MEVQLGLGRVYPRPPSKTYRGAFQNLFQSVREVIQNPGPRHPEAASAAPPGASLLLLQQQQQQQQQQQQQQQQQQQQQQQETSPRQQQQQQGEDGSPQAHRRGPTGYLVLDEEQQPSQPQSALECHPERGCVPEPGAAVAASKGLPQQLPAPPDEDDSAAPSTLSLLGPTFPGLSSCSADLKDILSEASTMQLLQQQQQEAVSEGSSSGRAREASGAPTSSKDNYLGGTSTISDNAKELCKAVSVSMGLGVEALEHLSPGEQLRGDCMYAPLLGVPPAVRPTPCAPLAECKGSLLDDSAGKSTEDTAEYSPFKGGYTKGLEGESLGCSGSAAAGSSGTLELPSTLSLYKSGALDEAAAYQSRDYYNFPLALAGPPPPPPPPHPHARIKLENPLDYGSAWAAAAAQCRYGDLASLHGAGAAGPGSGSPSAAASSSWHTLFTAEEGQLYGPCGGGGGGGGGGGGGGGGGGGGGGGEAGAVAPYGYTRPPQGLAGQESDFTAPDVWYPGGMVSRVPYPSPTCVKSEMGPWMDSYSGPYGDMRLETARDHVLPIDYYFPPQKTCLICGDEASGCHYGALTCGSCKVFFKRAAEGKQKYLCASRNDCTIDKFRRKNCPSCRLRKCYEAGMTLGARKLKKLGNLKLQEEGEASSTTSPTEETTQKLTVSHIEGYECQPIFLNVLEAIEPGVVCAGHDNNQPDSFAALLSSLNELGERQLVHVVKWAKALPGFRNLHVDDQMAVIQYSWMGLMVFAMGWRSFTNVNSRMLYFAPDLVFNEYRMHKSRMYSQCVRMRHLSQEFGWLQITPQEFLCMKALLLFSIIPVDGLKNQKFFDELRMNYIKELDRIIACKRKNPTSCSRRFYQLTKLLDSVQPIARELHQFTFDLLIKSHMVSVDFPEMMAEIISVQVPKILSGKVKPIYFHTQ
# Description: as §1
# [5] = target: T4, ER-SRC3 interaction in TamR3 cells (Homo sapiens, UniProt P03372); test: Proximity ligation assay (PLA), TamR3; assay type: cell-based
# T4 construct: endogenous in cells; host or cells: MCF7 or TamR3 cells
# T4 sequence (P03372 whole entry): as the sequence (P03372 whole entry) above
# Description: MCF7 or TamR3 cells were starved for 72 h and then seeded onto PEI coated coverslips in a 6-well plate at 1 × 10^5 cells/well. For the E2 experiments, the cells were treated the following day with 10 µM of ER-AF2 inhibitor for 24 h, with E2 added 1 h before fixation. […] 24 h post-treatment, cells were fixed in methanol:acetone (3:1). Coverslips were then permeabilized with 0.05% Triton X-100 for 5 minutes at room temperature. The Duolink In Situ Detection Reagents Red kit from Millipore Sigma (DUO92008) was used for blocking and PLA according to the manufacturer’s protocol.
# [6] = Precipitation in MST assay buffer; assay type: physicochemical; details: 2% DMSO, 0.03 to 1000 µM
# Description: MST was used to validate the direct binding and measure the binding affinities between the lead compounds and the recombinant ER-LBD. ER-LBD was labeled with red fluorescent dye using a Protein Labeling Kit RED-NHS 2nd Generation (Nanotemper MO-L011) according to the manufacturer’s protocol. The compounds were serially diluted 1:2 in 100% DMSO from 50 to 0.0015 mM, then added to 10 nM of labeled ER protein in the assay buffer (25 mM Tris, pH 8.4, 150 mM NaCl, 20 µM E2, 0.1 mM PMSF, 0.05% Tween20) at final concentrations of 0.03 to 1000 µM. Recombinant proteins in cell free assays are not affected by DMSO concentrations up to 10%. A final concentration of 2% DMSO was chosen for MST as the compounds required this concentration to be soluble in the assay buffer. […] The corresponding data points were removed from the analysis. […] Each protein/compound mixture was then loaded into Monolith Premium Capillaries (Nanotemper MO-K025). All assays were conducted with medium MST power and 20% excitation power. Data analysis and Kd estimation were performed with the MO Affinity Analysis software from Nanotemper.
# [7] = system: ER target genes (cyclinD1, CDC2, E2F, PR, pS2) in TamR3 cells; test: Real-time PCR of ER target genes, TamR3; assay type: cell-based; details: 72 h
# Description: Total RNA was extracted using TRIzol, 72 h post-treatment. cDNA synthesis was conducted using the Maxima First Strand cDNA Synthesis Kit for RT-qPCR (Thermo K1641) according to the manufacturer’s protocol. RT-PCR was conducted on the QuantStudio 7 Pro instrument and expression fold change was calculated using 2−ΔΔCt method normalized to 18s.
smiles,measurement,setting,value
Cc1cccn2c(CNCc3cccc(N(C)C)n3)cnc12 [VPC-260724],Displacement of fluormone (fluorescent E2) from EBS,[1],did not displace the fluormone at any of the tested concentrations
same,IC50,MCF7 spheroids,15.6 ± 1.4 µM
same,Transcriptional activity of ER,[2],dose-dependent inhibition
same,Interaction between SRC3 and ER-Y537S,[3],inhibited the interaction
same,Transcriptional activity of mutant ER D538G/F404L,ER D538G/F404L mutant,significantly reduced the transcriptional activity
same,Transcriptional activity of AR,[4],did not significantly impact
same,ER-SRC3 interaction in TamR3 in presence of tamoxifen,[5]; 10 µM with 1 µM Tamoxifen,reduced this interaction
same,"ER-SRC3 interactions (PLA signals per nuclei), TamR3","[5]; 10 µM, 48 h, E2 stimulation",significantly reduced ER-SRC3 interactions
same,Precipitation after addition of ER protein,[6],did not exhibit precipitation at any concentration
same,"ER target gene expression in TamR3, combined with tamoxifen",[7]; 10 µM with 1 µM Tamoxifen,markedly reduced
same,"mRNA levels of ER target genes, TamR3","[7]; 10 µM, E2 stimulation",significant decrease
